According to patent publication US10463690B2, “Method and compositions for treating cancerous tumors” (priority 2016, dated 2019):

Columns and labels:
tumor = conditions: animal experiments; cited from earlier work
[1] = placed on rats in a 60% of the body 3rd degree burn; cited from earlier work
[2] = format: in vivo, Mice (SK1IPYMT 4913×SK1FVB)
From the text: The purpose was to see how and where the test product spread throughout the body. Mice were euthanized so that internal cavity could be examined. Organs were cut in half for inspection of the extent of saturation.

For `NCCCC(N)(C(=O)O)C(F)F` (stereo not shown) [DFMO, difuoromethylornithine], the “effect on tumor growth” value (tumor) is listed as “reduced tumor growth”.

For `[O][Cl+][O-]` [ClO2, Chlorine dioxide], the toxicity [1] is given as “no toxicity was indicated”.

For `CN(C)c1ccc2nc3ccc(=[N+](C)C)cc-3sc2c1` [methylene blue, Methylene blue], the “distribution of dye after injection into kidney” value ([2]; kidney injection) was “The entire kidney got saturated and the dye got into the urine but did not spread throughout the body” and the “distribution of dye after injection into liver” value ([2]; liver injection) was “The dye did not spread past the injection site in the liver”.
